# Assay results published in patent publication US6451785B1, “Beta lactams as antiproliferative agents” (SmithKline Beecham Corporation, priority 1997, dated 2002).
# What was measured:
# CoA-IT [1] = test: CoA-IT activity assay in U937 cell microsomes; type: biochemical
# Source text: The following is a method to measure CoA-IT activity and the effects of compounds on CoA-IT activity. The assay is based upon mixing cellular material containing CoA-IT activity with a stable lyso phospholipid such as […] and measuring the production of phospholipid product such as […] occurring in the absence of added CoA or CoA-fatty acids.
# Any inflammatory cell that contains high levels of CoA-IT activity can be used, such as neutrophils, macrophages or cell lines such as U937 cells. U937 cells were obtained from American Type Culture Collection and grown in RPMI-1640 media (Gibco, Grand Island, N.Y.) supplemented with 10% fetal bovine serum (Hyclone, Logan, UT) at 37° C., 5% CO2. Cells were grown without differentiation (basal state) by any agent, such as dimethyl sulfoxide. As used herein, “inflammatory cells” include, but are not limited to neutrophils, macrophages, monocytes, lymphocytes, eosinophils, basophils, and mast cells.
# Microsomes were prepared using standard techniques. In this case, cells were washed with a buffer of 250 mM sucrose, 10 mM Tris, 1 mM EGTA, 1 mM MgCl2, pH 7.4 and ruptured by N2 cavitation (750 psi, 10 minutes). The ruptured cells were centrifuged 1000×g, 5 minutes. The resulting supernatant was centrifuged at 20,000×g,˜20 minutes. Microsomes were prepared from this supernatant by centrifugation at 100,000×g, 60 minutes. The resulting pellet was washed once with assay buffer (150 mM NaCl, 10 mM Na2KPO4, 1 mM EGTA, pH 7.4), recentrifuged and the pellet resuspended in assay buffer (4-20 mg protein/ml) and was stored at −80° C. until assayed.
# CoA-II activity was measured in 1.5 ml centrifuge tubes in a total volume of 100 ul. Microsomes were diluted in assay buffer to the desired protein concentration (6-20 ug/tube). The reaction was initiated by addition of [3H]1-alkyl-2-lyso-sn-glycero-3-phosphocholine (GPC) (˜0.1 uCi/tube) and 1 μM final cold 1-alkyl-2-lyso-GPC in assay buffer with 0.25 mg/ml fatty acid-poor bovine serum albumin (BSA) (Calbiochem, La Jolla, Calif.). [3H]1-alkyl-2-lyso-GPC, approximately 50 Ci/mmol, was from NEN-Dupont (Boston, Mass.) and cold 1-alkyl-2-lyso-GPC was from Biomol (Plymouth Meeting, Pa.). Microsomes were pretreated with desired agents for the desired time (10 minutes) before the addition of [3H]1-alkyl-2-lyso-GPC. The reaction was run for the desired tlime (10 minutes) at 37° C. The reaction was stopped and the lipids extracted by addition of 100 ul of chloroform:methanol (1:2, v/v) followed by 100 ul of chloroform and 100 ul of 1 M KCI. The samples were vortexed and centrifuged at high speed in a microfuge for 2-3 minutes. An aliquot of the chloroform-extracted materials were separated, usually by TLC in chloroform/methanol/acetic acid/water (50:25:8:4, v/v), visualized by radioscanning (Bioscan) and the product, [3H]1-alkyl-2-acyl-GPC, was scraped and quantified by liquid scintillation spectroscopy. […] Other methods can be used to separate substrate from product, including but not limited to column chromatography, affinity chromatography and post reaction derivitization.
# Protein concentration were assessed using the protein assay reagents from Bio Rad (Richmond, Calif.).
# neoplastic cell lines = details: literature, background; several neoplastic cell lines; cited from earlier work
# CoA-IT [2] = details: literature, background; cited from earlier work
smiles,measurement,setting,value
"O=S1(=O)CCn2c1nc(-c1ccc(F)cc1)c2-c1ccncc1 [6-(4′-Fluorophenyl)-5-(4-pyridyl)2,3-dihydroimidzo-[2,1-b]thiazole-dioxide]",effect on CoA-IT activity,CoA-IT [1]; at concentrations up to 100 μM,no effect
"Fc1ccc(-c2nc3n(c2-c2ccncc2)CCS3)cc1 [6-(4′-Fluorophenyl)-5-(4-pyridyl)-2,3-dihydroimidzo-[2,1-b]thiazole]",effect on CoA-IT activity,CoA-IT [1]; at concentrations up to 100 μM,no effect
Cc1cc(C(C)(C)C)c(O)c(C(C)(C)C)c1 [BHT],effect on CoA-IT activity,CoA-IT [1]; at concentrations up to 100 μM,no effect
CN(C)CCC=C1c2ccccc2COc2ccccc21 [Doxepine],effect on CoA-IT activity,CoA-IT [1]; at concentrations up to 100 μM,did not inhibit
"CCCCCCCCCCCCCCCCCCOCC(COP(=O)([O-])OCC[N+](C)(C)C)OC (stereo not drawn) [ET-18-0-CH3, 1-0-octadecyl-2-0-methyl-phosphocholine]",antiproliferative / apoptosis effect,neoplastic cell lines,attenuate cell proliferation and induce apoptosis
same,inhibition of CoA-IT,CoA-IT [2],potent inhibitor
"COC(=O)CCCO[C@@H]1NC(=O)[C@H]1NC(c1ccccc1)(c1ccccc1)c1ccccc1 [Example 17, (3S,4S)-4-[3-(Methoxycarbonyl)propoxy]-3-(triphenylmethylamino)azetidin-2-one]",activity in microsomal CoA-IT assay under other conditions,CoA-IT [1]; increased uM or longer pretreatment time,active at either increased uM or longer pretreatment time
"O=C(Nc1ccc(Cl)c(C(F)(F)F)c1)Nc1cc(C(F)(F)F)ccc1Oc1cc(Cl)c(Cl)cc1S(=O)(=O)O [SK&F 45905, 2-[2-[3-(4-Chloro-3-trifluoromethylphneyl)ureido]-4-tifluromethylphenoxy]-4,5-dichlorobenzene sulfonic acid]",antiproliferative / apoptosis effect,neoplastic cell lines,possess antiproliferative properties
same,inhibition of CoA-IT,CoA-IT [2],capable of inhibiting CoA-IT
"CCOP(=O)(CCCCCCCn1c(-c2ccccc2)c(-c2ccccc2)n(-c2ccccc2)c1=O)OCC [SK&F 98625, Diethyl 7-(3,4,5-triphenyl-2-oxo-2,3-dihydroimidazol-1yl)heptane phosphonate]",antiproliferative / apoptosis effect,neoplastic cell lines,possess antiproliferative properties
same,inhibition of CoA-IT,CoA-IT [2],capable of inhibiting CoA-IT
COc1cccc2c1cc([N+](=O)[O-])c1c(C(=O)O)cc3c(c12)OCO3 [aristolochic acid],effect on CoA-IT activity,CoA-IT [1]; at concentrations up to 500 μM,no effect
COc1ccc2c(c1)c(CC(=O)O)c(C)n2C(=O)c1ccc(Cl)cc1 [indomethicin],effect on CoA-IT activity,CoA-IT [1]; at concentrations up to 100 μM,no effect
COc1ccc2cc([C@H](C)C(=O)O)ccc2c1 [naproxen],effect on CoA-IT activity,CoA-IT [1]; at concentrations up to 100 μM,no effect
CCN(CC)CCCC(C)Nc1c2ccc(Cl)cc2nc2ccc(OC)cc12 (stereo not drawn) [quinacrine],effect on CoA-IT activity,CoA-IT [1]; at concentrations up to 500 μM,no effect
